“Also recorded” adds a separate entry of the source.
What was measured:
HT29/DX cells [1] = assay: Co-administration assay with doxorubicin (MTT) in HT29/DX cells; assay type: cell-based
Experimental: (§1) The co‐administration assay with Doxorubicin was performed in MDCK‐MDR1, HT29 and HT29/DX cells at 48 h as reported with minor modifications.[49] […] On day 2, the tested drug was added alone to the cells at different concentrations (10 nM, 100 nM, 500 nM, 1 μM, 10 μM). On day 3, the medium was removed and the drug at the same concentrations was added alone and in co‐administration with 10 μM Doxorubicin to the cells. After the established incubation time with the tested drug, MTT (0.5 mg/mL) was added to each well, and after 3–4 h incubation at 37 °C, the supernatant was removed. The formazan crystals were solubilized using 100 μL of DMSO/EtOH (1 : 1), and the absorbance values at 570 and 630 nm were determined on the microplate reader Victor 3 from PerkinElmer Life Sciences.

HT29 cells [2] = assay: Co-administration assay with doxorubicin (MTT) in HT29 cells; assay type: cell-based
Experimental: as §1

HT29 cells [3] = assay: Intracellular doxorubicin accumulation in HT29 cells; settings: 24 h, doxorubicin 10 μM + compound 100 nM-10 μM
Experimental: (§2) Cells were collected and the intracellular drug content was measured fluorimetrically as detailed previously,[47] using a Synregy HTX 96‐well plate reader (Bio‐Tek Instruments, Winooski, VT). The results were expressed as nmol doxorubicin/mg cell proteins, according to a titration curve previously set. […] A second series of dishes, after the incubation with doxorubicin formulations under the same experimental conditions, were left for further 10 min at 37 °C, then washed and tested for the intracellular drug content. The difference of doxorubicin concentration between the two series, expressed as nmol doxorubicin extruded/min/mg cell protein was plotted versus the initial drugs’ concentration. Values were fitted to Michaelis‐Menten equation to calculate Vmax and Km, using the Enzfitter software (Biosoft Corporation, Cambridge, United Kingdom).[47]

HT29/DX cells [4] = assay: Intracellular doxorubicin accumulation in HT29/DX cells
Experimental: as §2

P-gp [5] = assay: Apparent permeability (Papp, BA/AB) in Caco-2 cell monolayer; settings: human, Caco-2, P app (BA/AB), two experiments in duplicate
Experimental: (§3) Compounds displaying a BA/AB >2 but not inducing an ATP cell depletion are classified as class IIB3 substrates.[43]
(§4) Caco‐2 cells were seeded onto a Millicell assay system (Millipore), in which a cell monolayer was set in between a filter cell and a receiver plate at a density of 20000 cells/well. The culture medium was replaced every 48 h, and the cells were kept for 21 days in culture. The trans epithelial electrical resistance (TEER) of the monolayers was measured daily, before and after the experiment, by using an epithelial voltohmmeter (Millicell‐ERS). Generally, TEER values greater than 1000 Ω for a 21 day culture are considered optimal.
(§5) After 21 days of Caco‐2 cell growth, the medium was removed from the filter wells and from the receiver plate, and they were filled with fresh Hank's balanced salt solution (HBSS) buffer (Invitrogen). This procedure was repeated twice, and the plates were incubated at 37 °C for 30 min. After the incubation time, the HBSS buffer was removed, and drug solutions and reference compounds were added to the filter well at a concentration of 100 μM, whereas fresh HBSS was added to the receiver plate. The plates were incubated at 37 °C for 120 min. Afterward, samples were removed from the apical (filter well) and basolateral (receiver plate) side of the monolayer to measure the permeability. The apparent permeability (Papp ), in units of nms‐1, was calculated by using the same equation reported above.

P-gp [6] = target: T1, P-gp (Homo sapiens, UniProt P08183); assay: Calcein-AM transport inhibition in MDCK-MDR1 cells; settings: for EC50 P-gp: MDCK-MDR1 cells overexpressing P-gp, calcein-AM, mean ±SEM of two experiments in triplicate
T1 sequence (P08183 whole entry): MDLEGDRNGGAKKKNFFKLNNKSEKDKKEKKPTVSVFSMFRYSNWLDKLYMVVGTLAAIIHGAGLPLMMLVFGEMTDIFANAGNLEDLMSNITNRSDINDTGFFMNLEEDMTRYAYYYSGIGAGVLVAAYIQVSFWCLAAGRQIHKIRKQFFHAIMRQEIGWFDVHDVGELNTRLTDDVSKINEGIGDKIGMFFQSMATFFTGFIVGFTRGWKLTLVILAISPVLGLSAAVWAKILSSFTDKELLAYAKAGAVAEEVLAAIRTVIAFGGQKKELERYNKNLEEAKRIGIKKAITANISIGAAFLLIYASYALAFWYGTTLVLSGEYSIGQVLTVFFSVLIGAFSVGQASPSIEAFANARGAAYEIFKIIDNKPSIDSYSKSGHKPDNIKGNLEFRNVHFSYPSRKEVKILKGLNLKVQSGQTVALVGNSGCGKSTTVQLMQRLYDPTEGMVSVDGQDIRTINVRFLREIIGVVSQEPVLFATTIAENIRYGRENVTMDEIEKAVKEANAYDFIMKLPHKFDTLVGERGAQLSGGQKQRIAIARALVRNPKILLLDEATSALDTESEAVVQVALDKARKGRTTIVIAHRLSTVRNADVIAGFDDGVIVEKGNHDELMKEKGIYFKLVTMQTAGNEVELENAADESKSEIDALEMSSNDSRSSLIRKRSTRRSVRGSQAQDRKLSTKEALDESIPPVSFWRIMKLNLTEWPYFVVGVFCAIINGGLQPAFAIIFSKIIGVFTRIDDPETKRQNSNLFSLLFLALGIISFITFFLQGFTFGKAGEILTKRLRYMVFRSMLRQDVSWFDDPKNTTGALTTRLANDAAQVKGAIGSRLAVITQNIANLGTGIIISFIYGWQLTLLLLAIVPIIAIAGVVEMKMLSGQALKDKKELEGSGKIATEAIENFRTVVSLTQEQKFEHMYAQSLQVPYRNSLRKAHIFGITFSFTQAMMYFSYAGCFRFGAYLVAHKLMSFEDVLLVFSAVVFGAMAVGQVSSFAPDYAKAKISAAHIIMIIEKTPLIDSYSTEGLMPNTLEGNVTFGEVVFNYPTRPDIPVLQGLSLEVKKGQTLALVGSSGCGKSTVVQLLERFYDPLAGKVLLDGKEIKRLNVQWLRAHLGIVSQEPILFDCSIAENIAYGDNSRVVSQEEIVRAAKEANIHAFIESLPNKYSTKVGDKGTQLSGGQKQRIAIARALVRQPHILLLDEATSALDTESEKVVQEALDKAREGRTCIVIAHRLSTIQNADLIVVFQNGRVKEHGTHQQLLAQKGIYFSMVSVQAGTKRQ
Experimental: (§6) The new compounds were tested for their activity toward P‐gp and the other two MDR sister proteins, MRP1 and BCRP, by measuring the inhibition of the transport of the profluorescent probe calcein‐AM (P‐gp and MRP1 substrate) in cells overexpressing P‐gp and MRP1 (MDCK‐MDR1 and MDCK‐MRP1 cells, respectively) and of the fluorescent probe Hoechst 33342 (BCRP substrate) in cells overexpressing BCRP (MDCK‐BCRP cells).
Each cell line (30,000 cells per well) was seeded into black CulturePlate 96/wells plate with 100 μL medium and allowed to become confluent overnight. 100 μL of test compounds, solubilized in culture medium, were added to monolayers, with final concentrations ranging from 0.1 to 100 μM. Thus, after a 30 min incubation time at 37 °C, calcein‐AM was added in 100 μL of Phosphate Buffered Saline (PBS) to the 96/wells plate to yield a final concentration of 2.5 μM; the plate was then incubated for 30 min. Each well was washed 3 times with ice cold PBS and saline buffer was added to each well and the plate read with Victor3 (PerkinElmer) at excitation and emission wavelengths of 485 nm and 535 nm, respectively. In these experimental conditions, calcein cell accumulation in the absence and in the presence of tested compounds was evaluated and fluorescence basal level was estimated with untreated cells. In treated wells, the increase of fluorescence with respect to basal level was measured. EC50 values were determined by fitting the fluorescence increase percentage versus log[dose].

P-gp [7] = target: T1, P-gp; assay: ATP cell depletion (ATPlite assay) in MDCK-MDR1 cells; settings: Yes/No
Experimental: In addition, the P‐gp interacting profile of the new compounds was evaluated by the combination of the inhibition of the efflux of calcein‐AM in MDCK‐MDR1 cells test with other two assays: the apparent permeability (Papp ) determination in the Caco‐2 cell monolayer, and the ATP cell depletion in MDCK‐MDR1 cells. […] This last information is completed by the ATP cell depletion assay, which measures the total ATP cell level in the MDCK cells overexpressing only P‐gp: in this setting, the observed effect can be mainly ascribed to the overexpressed transporter.[42]
The MDCK‐MDR1 cells seeded into 96‐well microplate in 100 μL of complete medium at a density 2×10^4 cells/well were incubated overnight (O/N) in a humidified atmosphere 5 % CO2 at 37 °C. The medium was removed and 100 μL of complete medium either alone or containing different concentrations of test compounds were added. The plate was incubated for 2 h in a humidified 5 % CO2 atmosphere at 37 °C. 50 μL of mammalian cell lysis solution was added to all wells and the plate shaken for five minutes in an orbital shaker. 50 μL of substrate solution was added to all wells and the plate shaken for five minutes in an orbital shaker. The plate was dark adapted for ten minutes and the luminescence was measured.

MRP1 = MRP1 (Homo sapiens, UniProt P33527); assay: cell-based
Sequence of MRP1 (P33527 whole entry): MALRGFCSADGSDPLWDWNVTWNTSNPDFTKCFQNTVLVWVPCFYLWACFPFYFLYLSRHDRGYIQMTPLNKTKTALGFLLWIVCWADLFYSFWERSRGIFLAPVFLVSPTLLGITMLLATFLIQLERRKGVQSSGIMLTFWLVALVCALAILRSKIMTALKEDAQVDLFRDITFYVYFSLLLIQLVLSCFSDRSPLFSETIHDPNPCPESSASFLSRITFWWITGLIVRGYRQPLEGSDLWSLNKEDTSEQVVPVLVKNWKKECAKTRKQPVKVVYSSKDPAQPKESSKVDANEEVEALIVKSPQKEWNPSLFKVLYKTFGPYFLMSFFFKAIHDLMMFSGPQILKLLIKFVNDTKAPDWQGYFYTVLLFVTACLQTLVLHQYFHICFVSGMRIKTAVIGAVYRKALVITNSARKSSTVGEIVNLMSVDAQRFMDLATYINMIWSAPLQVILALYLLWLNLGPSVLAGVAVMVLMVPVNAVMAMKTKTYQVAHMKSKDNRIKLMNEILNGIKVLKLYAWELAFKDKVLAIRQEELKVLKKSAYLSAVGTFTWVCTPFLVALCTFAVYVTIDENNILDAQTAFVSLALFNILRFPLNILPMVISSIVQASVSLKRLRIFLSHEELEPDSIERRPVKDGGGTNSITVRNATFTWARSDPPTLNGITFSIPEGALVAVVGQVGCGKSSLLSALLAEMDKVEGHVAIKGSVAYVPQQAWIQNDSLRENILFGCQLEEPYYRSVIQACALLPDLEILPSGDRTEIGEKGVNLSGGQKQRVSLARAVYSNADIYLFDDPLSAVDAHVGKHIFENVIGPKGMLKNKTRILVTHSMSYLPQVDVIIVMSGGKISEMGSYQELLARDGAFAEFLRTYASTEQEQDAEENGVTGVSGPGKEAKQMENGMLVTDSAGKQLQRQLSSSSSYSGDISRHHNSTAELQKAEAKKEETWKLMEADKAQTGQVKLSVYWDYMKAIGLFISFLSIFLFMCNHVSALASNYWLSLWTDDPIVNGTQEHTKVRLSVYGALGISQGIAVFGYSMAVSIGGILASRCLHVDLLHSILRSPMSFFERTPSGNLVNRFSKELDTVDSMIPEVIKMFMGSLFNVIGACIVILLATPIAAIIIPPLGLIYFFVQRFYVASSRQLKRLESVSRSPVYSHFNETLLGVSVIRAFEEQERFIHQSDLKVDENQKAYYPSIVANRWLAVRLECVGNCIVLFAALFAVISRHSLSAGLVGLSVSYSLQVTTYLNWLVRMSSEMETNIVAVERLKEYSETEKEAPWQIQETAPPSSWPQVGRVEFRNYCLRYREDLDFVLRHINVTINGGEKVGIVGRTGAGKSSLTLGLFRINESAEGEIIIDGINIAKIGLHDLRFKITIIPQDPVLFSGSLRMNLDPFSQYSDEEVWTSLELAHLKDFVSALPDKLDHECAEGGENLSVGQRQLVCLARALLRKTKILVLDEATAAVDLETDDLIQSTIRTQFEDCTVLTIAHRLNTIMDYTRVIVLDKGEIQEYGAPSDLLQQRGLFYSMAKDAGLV
Experimental: as §6
Each cell line (30,000 cells per well) was seeded into black CulturePlate 96/wells plate with 100 μL medium and allowed to become confluent overnight. 100 μL of test compounds, solubilized in culture medium, were added to monolayers, with final concentrations ranging from 0.1 to 100 μM. […] Each well was washed 3 times with ice cold PBS and saline buffer was added to each well and the plate read with Victor3 (PerkinElmer) at excitation and emission wavelengths of 485 nm and 535 nm, respectively. In these experimental conditions, calcein cell accumulation in the absence and in the presence of tested compounds was evaluated and fluorescence basal level was estimated with untreated cells. In treated wells, the increase of fluorescence with respect to basal level was measured. EC50 values were determined by fitting the fluorescence increase percentage versus log[dose].

Caco-2 cell monolayer = assay: Apparent permeability (Papp, BA/AB) in Caco-2 cell monolayer; settings: BA/AB ratio, two experiments in duplicate
Experimental: as §3, §4, §5

P-gp [8] = target: T1, P-gp; assay: P-gp interacting profile (combination of calcein-AM, Papp and ATP cell depletion assays); settings: classification from Papp, calcein-AM inhibition and ATP cell depletion
Experimental: In addition, the P‐gp interacting profile of the new compounds was evaluated by the combination of the inhibition of the efflux of calcein‐AM in MDCK‐MDR1 cells test with other two assays: the apparent permeability (Papp ) determination in the Caco‐2 cell monolayer, and the ATP cell depletion in MDCK‐MDR1 cells. […] This last information is completed by the ATP cell depletion assay, which measures the total ATP cell level in the MDCK cells overexpressing only P‐gp: in this setting, the observed effect can be mainly ascribed to the overexpressed transporter.[42] […] Compounds displaying a BA/AB >2 but not inducing an ATP cell depletion are classified as class IIB3 substrates.[43]

BCRP = target: T2, BCRP (Homo sapiens, UniProt Q9UNQ0); assay: Hoechst 33342 transport inhibition in MDCK-BCRP cells; assay type: cell-based; settings: MDCK-BCRP cells overexpressing BCRP, mean ±SEM
T2 construct: expressed in transfected cells; host or cells: MDCK-BCRP (Madin-Darby Canine Kidney, transfected); gift of Prof; P. Borst, NKI-AVL
T2 sequence (Q9UNQ0 1-655): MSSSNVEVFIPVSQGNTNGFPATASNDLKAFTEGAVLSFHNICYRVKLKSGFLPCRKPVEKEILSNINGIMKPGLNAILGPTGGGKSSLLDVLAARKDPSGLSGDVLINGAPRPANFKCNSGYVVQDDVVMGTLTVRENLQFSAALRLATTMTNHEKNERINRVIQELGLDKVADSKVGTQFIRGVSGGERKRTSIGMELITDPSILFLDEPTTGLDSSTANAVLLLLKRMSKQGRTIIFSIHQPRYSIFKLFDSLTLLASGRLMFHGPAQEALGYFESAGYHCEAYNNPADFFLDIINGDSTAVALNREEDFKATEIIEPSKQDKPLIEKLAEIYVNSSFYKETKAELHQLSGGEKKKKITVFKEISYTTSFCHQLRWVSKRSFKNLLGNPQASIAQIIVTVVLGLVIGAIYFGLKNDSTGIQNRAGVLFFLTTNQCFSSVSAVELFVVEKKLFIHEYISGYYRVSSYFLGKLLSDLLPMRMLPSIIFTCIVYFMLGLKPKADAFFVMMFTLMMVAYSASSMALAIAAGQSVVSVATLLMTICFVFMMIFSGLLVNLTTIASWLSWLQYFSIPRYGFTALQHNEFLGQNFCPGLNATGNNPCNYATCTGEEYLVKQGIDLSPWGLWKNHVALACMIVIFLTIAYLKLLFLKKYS
Experimental: Each cell line (30,000 cells per well) was seeded into black CulturePlate 96/wells plate with 100 μL medium and allowed to become confluent overnight. 100 μL of test compounds, solubilized in culture medium, were added to monolayers, with final concentrations ranging from 0.1 to 100 μM. After 30 min incubation time at 37 °C, Hoechst 33342 was added in 100 μL of Phosphate Buffered Saline (PBS) to yield a final concentration of 8 μM to the 96/wells plate and the plate incubated for 30 min. The supernatants were drained and the cells were fixed for 20 min under light protection using 100 μL per well of a 4 % PFA solution. Each well was washed 3 times with ice cold PBS and saline buffer added to each well and the plate read with Victor3 (PerkinElmer) at excitation and emission wavelengths of 340/35 nm and 485/20 nm, respectively. In these experimental conditions, Hoechst 33342 accumulation in the absence and in the presence of tested compounds was evaluated and fluorescence basal level was estimated with untreated cells. In treated wells the increase of fluorescence with respect to basal level was measured. EC50 values were determined by fitting the fluorescence increase percentage versus log[dose].

HT29 cells [9] = assay: Kinetic parameters of doxorubicin efflux in HT29 cells
Experimental: as §2

HT29/DX cells [10] = assay: Kinetic parameters of doxorubicin efflux in HT29/DX cells
Experimental: as §2

[11] = absence or presence of 10 μM compound 1 e
[12] = read-out: Km of doxorubicin efflux, absence or presence of 10 μM compound 1 e

For `COc1cc2c(cc1OC)CN(c1nc(/C=C/c3cc(OC)c(OC)c(OC)c3)nc3ccccc13)CC2` [Compound 1 e, (E)‐4‐(6,7‐Dimethoxy‐3,4‐dihydroisoquinolin‐2(1H)‐yl)‐2‐(3,4,5‐trimethoxystyryl)quinazoline], the “cell viability, compound alone” value (HT29/DX cells [1]; HT29/DX (doxorubicin-resistant) cells) was “did not significantly reduce cell viability”, the “viability with doxorubicin co-administration” value (HT29/DX cells [1]; HT29/DX cells, doxorubicin 10 μM + compound 10 μM) was “reduced at the same extent of doxorubicin‐sensitive cells” and the “cell viability, compound alone” value (HT29 cells [2]; HT29 (doxorubicin-sensitive) cells) was “did not significantly reduce cell viability”. For the same molecule, the “effect on intracellular doxorubicin content” value (HT29 cells [3]) was “did not modify the intracellular drug content” and the “effect on intracellular doxorubicin content” value (HT29/DX cells [4]; HT29/DX cells, 24 h, doxorubicin 10 μM + compound 100 nM-10 μM) was “progressively increased it”.

In the case of `c1ccc(CCNc2nc(-c3c4ccccc4cc4ccccc34)nc3ccccc23)cc1` [Compound 3 b, 2‐(Anthracen‐9‐yl)‐N‐phenethylquinazolin‐4‐amine], the efflux ratio at 120 min, 100 μM (P-gp [5]) is reported as 10.5, the melting point is reported as 236 to 238 °C (dec.) and the “EC50 P-gp” value (P-gp [6]) is reported as “not active”.

For `c1ccc2c(-c3nc(N4CCOCC4)c4ccccc4n3)c3ccccc3cc2c1` [Compound 3 c, 4‐(2‐(Anthracen‐9‐yl)quinazolin‐4‐yl)morpholine], the efflux ratio at 120 min, 100 μM (P-gp [5]) was 20 and the “EC50 P-gp” value (P-gp [6]) was “not active”.

In the case of `COc1cc2c(cc1OC)CN(c1nc(-c3c4ccccc4cc4ccccc34)nc3ccccc13)CC2` [Compound 3 e, 2‐(Anthracen‐9‐yl)‐4‐(6,7‐dimethoxy‐3,4‐dihydroisoquinolin‐2(1H)‐yl)quinazoline], the efflux ratio at 120 min, 100 μM (P-gp [5]) is reported as 18.5, the ATP cell depletion (P-gp [7]) is reported as “No” and the EC50 (P-gp [6]) is reported as 1.14 ± 0.2 µM.

In the case of `COc1ccc(-c2nc(NCCc3ccccc3)c3ccccc3n2)c(OC)c1OC` [Compound 4 b, N‐Phenethyl‐2‐(2,3,4‐trimethoxyphenyl)quinazolin‐4‐amine], the efflux ratio at 120 min, 100 μM (P-gp [5]) is reported as 14.8, the EC50 (MRP1) is reported as 52 ± 10.1 µM and the ATP cell depletion (P-gp [7]) is reported as “No”. The EC50 (P-gp [6]) was 1.41 ± 0.25 µM.

With `COc1ccc(-c2nc(N3CCOCC3)c3ccccc3n2)c(OC)c1OC` [Compound 4 c, 4‐(2‐(2,3,4‐Trimethoxyphenyl)quinazolin‐4‐yl)morpholine] the efflux ratio at 120 min, 100 μM (P-gp [5]) was 3.8, the ATP cell depletion (P-gp [7]) was “No” and the EC50 (P-gp [6]) was 9.55 ± 1.8 µM.

In the case of `COc1ccc2ccccc2c1-c1nc(N2CCN(C)CC2)c2ccccc2n1` [Compound 5 d, 2‐(2‐Methoxynaphthalen‐1‐yl)‐4‐(4‐methylpiperazin‐1‐yl)quinazoline], the efflux ratio at 120 min, 100 μM (P-gp [5]) is reported as 5.4, the ATP cell depletion (P-gp [7]) is reported as “No” and the EC50 (P-gp [6]) is reported as 6.06 ± 1.2 µM.

In the case of `COc1cc2c(cc1OC)CN(CCc1ccc(Nc3nc(-c4c(OC)c(OC)cc5ccccc45)nc4ccccc34)cc1)CC2` [Compound 6 a, N‐(4‐(2‐(6,7‐Dimethoxy‐3,4‐dihydroisoquinolin‐2(1H)‐yl)ethyl)phenyl)‐2‐(2,3‐dimethoxynaphthalen‐1‐yl)quinazolin‐4‐amine], the efflux ratio at 120 min, 100 μM (P-gp [5]) is reported as 19.2, the ATP cell depletion (P-gp [7]) is reported as “No” and the EC50 (P-gp [6]) is reported as 0.2 ± 0.04 µM.

With `COc1ccc(C(c2ccc(OC)cc2)c2nc(Nc3ccc(CCN4CCc5cc(OC)c(OC)cc5C4)cc3)c3ccccc3n2)cc1` [Compound 7 a, 2‐(Bis(4‐methoxyphenyl)methyl)‐N‐(4‐(2‐(6,7‐dimethoxy‐3,4‐dihydroisoquinolin‐2(1H)‐yl)ethyl)phenyl)quinazolin‐4‐amine] the efflux ratio at 120 min, 100 μM (P-gp [5]) was 32.9, the ATP cell depletion (P-gp [7]) was “No” and the EC50 (P-gp [6]) was 0.11 ± 0.02 µM.

In the case of `COc1ccc(C(c2ccc(OC)cc2)c2nc(N3CCOCC3)c3ccccc3n2)cc1` [Compound 7 c], the efflux ratio at 120 min, 100 μM (P-gp [5]) is reported as under 2, the “P app (BA/AB)” value (Caco-2 cell monolayer) is reported as 1.5 and the ATP cell depletion (P-gp [7]) is reported as “do not inducing ATP cell depletion and No”. The EC50 (P-gp [6]) was 2.13 ± 0.4 µM and the P-gp interacting profile (P-gp [8]) was “P‐gp inhibitor; also recorded: pure inhibitor”.

For `COc1ccc(C(c2ccc(OC)cc2)c2nc(N3CCN(C)CC3)c3ccccc3n2)cc1` [Compound 7 d, 2‐(Bis(4‐methoxyphenyl)methyl)‐4‐(4‐methylpiperazin‐1‐yl)quinazoline], the efflux ratio at 120 min, 100 μM (P-gp [5]) was 6.9, the EC50 (MRP1) was 43.2 ± 8.5 µM and the ATP cell depletion (P-gp [7]) was “No”. The EC50 (P-gp [6]) was 0.96 ± 0.18 µM and the EC50 (BCRP) was 8.62 ± 1.6 µM.

In the case of `COc1ccc(C(c2ccc(OC)cc2)c2nc(N3CCc4cc(OC)c(OC)cc4C3)c3ccccc3n2)cc1` [Compound 7 e, 2‐(Bis(4‐methoxyphenyl)methyl)‐4‐(6,7‐dimethoxy‐3,4‐dihydroisoquinolin‐2(1H)‐yl)quinazoline], the efflux ratio at 120 min, 100 μM (P-gp [5]) is reported as 8.4, the ATP cell depletion (P-gp [7]) is reported as “No” and the EC50 (P-gp [6]) is reported as 0.16 ± 0.026 µM.

For `COc1cccc2c1C(=O)c1c(O)c3c(c(O)c1C2=O)C[C@@](O)(C(=O)CO)C[C@@H]3O[C@H]1C[C@H](N)[C@H](O)[C@H](C)O1` [Doxo, doxorubicin], the “Vmax of doxorubicin efflux” value (HT29 cells [9]; [11]) was 3.15 ± 0.07 µmol/min, the Km (HT29 cells [9]; [12]) was 0.53 ± 0.06 µM and the “viable cells, doxorubicin alone” value (HT29 cells [2]; HT29 cells, doxorubicin 10 μM) was “significant decrease in viable cells”. The “Vmax of doxorubicin efflux” value (HT29/DX cells [10]; [11]) was 8.05 ± 0.64 µmol/min, the Km (HT29/DX cells [10]; [12]) was 0.52 ± 0.06 µM and the “intracellular doxorubicin retained, doxorubicin alone” value (HT29/DX cells [4]; HT29/DX cells compared with HT29 cells) was “retained a lower amount of doxorubicin”.

With `COc1cc2c(cc1OC)CN(CCc1ccc(NC(=O)c3cccc4c(=O)c5cccc(OC)c5[nH]c34)cc1)CC2` [elacr, elacridar, reference compound] the ATP cell depletion (P-gp [7]) was “Yes^[e]”.

With `COc1cc2c(cc1OC)CN(CCc1ccc(NC(=O)c3cc(OC)c(OC)cc3NC(=O)c3cnc4ccccc4c3)cc1)CC2` [tariq, tariquidar, reference compound] the efflux ratio at 120 min, 100 μM (P-gp [5]) was over 20 and the ATP cell depletion (P-gp [7]) was “Yes^[d]”.

Source: PMC9325490, “Overcoming Multidrug Resistance (MDR): Design, Biological Evaluation and Molecular Modelling Studies of 2,4‐Substituted Quinazoline Derivatives” (Chemmedchem, 2022)
